Laboratory results taken from patent US20040142888A1, “Modulators of RabGGT and methods of use thereof” (priority 2002, published 2004).
Read-outs that look alike come from different tables or passages of the source.

What was measured:
[1] = tested on: HCT-116 human colon tumor cells; assay: Compound-induced apoptosis in HCT-116 human colon tumor cells (microscopy for morphological markers); assay type: cell-based
Protocol: HCT-116 human colon tumor cells obtained from the American Type Culture Collection (ATCC) were grown in McCoy's 5A culture medium with 10% heat inactivated FBS, 1× penicillin/streptomycin, and 25 mM HEPES, in an incubator maintained at 37° C. with CO2 at 6-7% and humidity at 95%. Cells were treated with compounds using a dose range from 0.04 μM to 100 μM. After 48 hours they were examined by microscopy for signs of cell rounding, vaccuolation, and nuclear condensation. These are morphological markers associated with apoptosis, and are consistent with results obtained by performing an assay for nucleosomal DNA, or a TdT-mediated dUTP nick end labeling (TUNEL) assay.
The concentrations cited are the minimal concentration required to induce these morphological changes in 50% of the treated cells.

[2] = target: T1, rat RabGGT (Rattus norvegicus, UniProt Q08602+Q08603); assay: RabGGT filter binding assay: transfer of (3H)geranylgeranyl from 3H-GGPP to recombinant Rab3A; assay type: biochemical; conditions: for IC90/IC50: RabGGT inhibition
T1 construct: purchased Calbiochem 345855; host or cells: Sf9/baculovirus
T1 sequence (Q08602 1-567): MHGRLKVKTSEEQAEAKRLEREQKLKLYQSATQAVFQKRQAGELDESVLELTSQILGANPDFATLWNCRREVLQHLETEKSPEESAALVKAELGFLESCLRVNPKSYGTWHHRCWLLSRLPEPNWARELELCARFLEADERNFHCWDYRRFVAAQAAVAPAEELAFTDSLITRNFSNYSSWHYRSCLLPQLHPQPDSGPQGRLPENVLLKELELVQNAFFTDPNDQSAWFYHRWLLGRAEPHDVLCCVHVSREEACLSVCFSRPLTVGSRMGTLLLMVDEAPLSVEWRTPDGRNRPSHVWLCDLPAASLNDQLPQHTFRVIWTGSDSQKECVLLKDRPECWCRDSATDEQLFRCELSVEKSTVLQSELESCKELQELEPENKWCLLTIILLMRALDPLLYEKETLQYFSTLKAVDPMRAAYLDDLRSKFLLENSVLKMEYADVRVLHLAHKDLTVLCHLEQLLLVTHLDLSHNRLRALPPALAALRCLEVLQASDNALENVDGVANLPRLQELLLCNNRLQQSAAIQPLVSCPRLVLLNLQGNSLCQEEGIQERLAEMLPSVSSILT
T1 sequence (Q08603 1-331): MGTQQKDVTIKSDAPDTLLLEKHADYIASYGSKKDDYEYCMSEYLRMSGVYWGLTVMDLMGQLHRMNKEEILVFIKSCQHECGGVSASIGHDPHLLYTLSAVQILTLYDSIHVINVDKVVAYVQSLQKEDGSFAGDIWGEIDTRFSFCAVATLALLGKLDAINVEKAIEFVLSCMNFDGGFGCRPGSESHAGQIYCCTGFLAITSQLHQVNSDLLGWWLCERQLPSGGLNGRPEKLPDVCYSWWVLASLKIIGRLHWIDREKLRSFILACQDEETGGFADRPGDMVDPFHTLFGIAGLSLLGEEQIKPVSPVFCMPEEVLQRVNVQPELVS
From the text: The effect of compounds 7A through 7T on RabGGT activity was quantified using a filter binding assay that measures the transfer of (3H) geranylgeranyl groups (GG) from all-trans-(3H)geranylgeranyl pyrophosphate (3H-GGPP) to recombinant Rab3A protein (Shen & Seabra, 1996, JBC, 271 :3692; Armstrong et al., 1996, Methods in Enzymology 257:30). Modifications to published protocols are noted explicitly below.
Recombinant rat RabGGT, expressed using the Sf9/baculovirus system, was purchased from Calbiochem (cat. no. 345855). Recombinant unprenylated human Rab3A was obtained from Panvera.(cat. no. P2173). Human REβ-1, expressed in Sf9 cells, was obtained from Calbiochem (cat. no. 554000). Tritium labeled geranylgeranyl pyrophosphate was purchased from Amersham Pharmacia Biotech (15 Ci/mmol). Unlabeled GGPP was purchased from Sigma (cat. no. G-6025).
The reaction buffer contained 50 mM HEPES pH7.4, 5 mM MgCl2, 1 mM DTT, 1 mM Nβ-40. Solutions of RabGGT, Rab3A, REP-1, and GGPP were prepared in this reaction buffer. Final protein concentrations in the reaction mixture were modified from the published protocols, with the standard reaction mixture containing 2 μM Rab3A, 0.2 μM REP-1, 5 μM unlabeled GGPP, 0.5 μM labeled GGPP, and 10-50 nM RabGGT in a total volume of 20 μl. The specific activity of (3H)GGPP used in the assay was 3000 dpm/pmol.
Compounds were prepared as 50 mM stocks in DMSO and diluted to give an appropriate concentration for the assay as a 20% DMSO stock. 2 μl of the diluted compound stock was added to a 20 μl reaction to give a final DMSO concentration of 2% in the assay.
The order of addition of reagents was altered from the published protocols. Reaction mixtures were prepared by sequentially adding Rab3A and REP-1 proteins to the reaction buffer, followed by compound and RabGGT enzyme to a volume of 18 μl. Reactions were initiated by the addition of 2 μl of a solution that contained unlabeled and labeled GGPP. After a 30 minute incubation at 37° C., 1 ml of stop solution (1 volume of concentrated HCl acid with 9 volumes of ethanol) was added and mixed. The solution was then incubated at room temperature for 1 hour to completely precipitate proteins.
The precipitate was collected by vacuum filtration using a vacuum filtration manifold (Millipore model 1225) onto 25 mm GF/A filters (Whatman) that were prewetted with ethanol. The tubes were rinsed twice with 1 ml ethanol which was also poured over the filters. Each filter was subsequently washed three times with 2 mls of ethanol per wash, dried under vacuum, and then put in scintillation vials. Four milliliters of scintillation fluid was added and the radioactivity was quantified on a scintillation counter. Several types of blank reactions were conducted including withholding the enzyme, the substrate, or the accessory protein REP-1, or replacing the compound solution with a 20% DMSO solution. For the substrate titration experiment, the equimolar amounts of Rab3A and REP-1 were mixed and preincubated for 30 min at room temperature before addition of the enzyme.
The data was analyzed by non-linear regression analysis methods using the program PRIZM (GraphPad Software, Inc.). Inhibition constants were obtained by analyzing the data using the one site competition equation provided by the software. FIG. 7 presents a typical data series obtained for compound 7B using these methods.

[3] = target: Farnesyl Transferase (FT) (Homo sapiens, UniProt P49354+P49356); assay: Biochemical assay for inhibition of farnesyl transferase (FT)
Protocol: Biochemical assays for inhibition of FT were performed as described by Mann et al. (1995, Drug Dev. Res. 34: 121) with the modifications described by Ding et al. (1999, J. Med. Chem., 42:5241)

[4] = HCT-116, 48 h, HCT116 cells, 48 hours, minimal concentration inducing apoptotic morphological changes in 50% of treated cells, read-out: 50% APOPTOTIC
[5] = HCT-116, minimum concentration required to achieve apoptosis of 50% of the HCT116 cells (Table 7), read-out: HCT116 50% apoptosis
[6] = HCT-116, minimum concentration required to achieve apoptosis of 50% of the HCT116 cells (Table 8), read-out: HCT116 50% apoptosis
[7] = recombinant rat RabGGT, Rab3A, REP-1, 30 minute at 37° C.

Compound	EC50 [1, 4] [µM]	EC50 [1, 5] [µM]	EC50 [1, 6] [µM]	IC90/IC50 [2]	IC50 ([2]; Table 7) [µM]	IC50 [2, 7] [µM]	IC90 [2, 7] [µM]	IC50 [3] [µM]	IC90 [3] [µM]	EC50 ([1]; HCT-116, 48 h, HCT-116 cells, 48 hours, read-out: minimum effective concentration (apoptosis in 50% of cells)) [µM]
N#Cc1ccc2c(c1)CN(S(=O)(=O)N1CCCCC1)[C@H](Cc1ccccc1)CN2Cc1cnc[nH]1 [Compound 7B]	0.37	0.37	0.37	9	0.021	0.021	0.199	0.0078	0.11	–
CCCS(=O)(=O)N1Cc2cc(C#N)ccc2N(Cc2cnc[nH]2)C[C@H]1Cc1ccccc1 [Compound 7H]	0.37	0.37	0.37	5	0.021	0.021	0.115	0.0041	0.36	–
COc1ccc(S(=O)(=O)N2Cc3cc(C#N)ccc3N(Cc3cncn3C)C[C@H]2Cc2ccccc2)cc1 [Compound 7I]	0.04	0.04	0.04	6	0.016	0.016	0.093	0.0014	0.011	0.04

Further compounds by falling EC50 [1, 4], results first:

EC50 [1, 4] [µM]	EC50 [1, 5] [µM]	EC50 [1, 6] [µM]	IC90/IC50 [2]	IC50 ([2]; Table 7) [µM]	IC50 [2, 7] [µM]	IC90 [2, 7] [µM]	IC50 [3] [µM]	IC90 [3] [µM]	EC50 ([1]; HCT-116, 48 h, HCT-116 cells, 48 hours, read-out: minimum effective concentration (apoptosis in 50% of cells)) [µM]	Compound
3.7	3.3	3.3	8	0.036	0.036	0.295	0.0024	0.03	–	COc1ccc(S(=O)(=O)N2Cc3cc(C#N)ccc3N(Cc3cnc[nH]3)C[C@H]2Cc2ccccc2)cc1 [Compound 7A]
2.5	2.5	2.5	5	0.012	0.012	0.058	0.0008	0.007	–	Cn1cncc1CN1C[C@@H](Cc2ccccc2)N(S(=O)(=O)c2cccs2)Cc2cc(C#N)ccc21 [Compound 7J]
